Activity calls are given as the source filed them. The calls are words filed in the database; no cut-off is given here.
Experiments:
[1] = target: Serine/threonine-protein kinase PLK1 (Homo sapiens, UniProt P53350)
[2] = tested on: HCT-116; assay: cells; conditions: Homo sapiens
Description: Effect on cell cycle progression in human HCT116 cells assessed as increase in phospho-histone H3 by fluorescence microscopy

[3] = tested on: HCT-116; assay: cells; conditions: Homo sapiens; remark: listed apart in the source
Description: Effect on cell cycle progression in human HCT116 cells assessed as mitotic arrest measured by doubling DNA content by fluorescence microscopy

[4] = tested on: HCT-116; assay: cells; conditions: Homo sapiens; remark: listed apart in the source
Description: Effect on cell cycle progression in human HCT116 cells assessed as mitotic arrest measured by doubling DNA content by High content screening

[5] = Selectivity for Plk1 over Plk3
[6] = Selectivity for Plk1 over Plk2
[7] = Selectivity for Plk1 over Aurora A
[8] = tested on: HeLa; assay: Decrease in B23 nucleophosmin phosphorylation in human HeLa cells at 5 uM after 16 hrs by Western blot analysis; assay type: functional, cell-based

Sequence of Serine/threonine-protein kinase PLK1 (P53350 whole entry): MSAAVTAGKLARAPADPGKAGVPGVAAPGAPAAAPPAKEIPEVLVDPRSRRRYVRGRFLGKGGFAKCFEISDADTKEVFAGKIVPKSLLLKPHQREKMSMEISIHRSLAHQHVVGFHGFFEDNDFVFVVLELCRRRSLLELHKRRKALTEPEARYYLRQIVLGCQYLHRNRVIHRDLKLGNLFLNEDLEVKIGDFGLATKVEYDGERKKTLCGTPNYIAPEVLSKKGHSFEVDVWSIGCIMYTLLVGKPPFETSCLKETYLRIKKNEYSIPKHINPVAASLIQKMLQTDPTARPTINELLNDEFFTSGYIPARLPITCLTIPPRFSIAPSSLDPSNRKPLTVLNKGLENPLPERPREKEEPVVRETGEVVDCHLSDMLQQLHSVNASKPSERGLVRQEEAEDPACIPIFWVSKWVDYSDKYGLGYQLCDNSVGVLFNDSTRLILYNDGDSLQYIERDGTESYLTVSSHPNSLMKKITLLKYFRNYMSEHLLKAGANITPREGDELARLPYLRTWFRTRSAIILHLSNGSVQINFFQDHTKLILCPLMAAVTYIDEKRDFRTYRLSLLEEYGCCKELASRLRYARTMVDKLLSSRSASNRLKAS

SMILES | IC50 [1] [nM] | EC50 [4] [nM] | further results
Cc1nn(-c2cccc(C#N)c2)c2cc(N[C@@H](C)c3ccccc3)ncc12 | 412 | – | –
CCOC(=O)C1=C(C)NC(=S)NC1c1cccc(O)c1 (centres undefined) [MONASTROL] | – | – | EC50 [2]: 1500 nM; EC50 [3]: 1200 nM
Cc1nn(-c2cccc(N(C)C)c2)c2cc(N[C@@H](C)c3ccccc3)ncc12 | 977 | – | –
Cc1cc(C)cc(-n2nc(C)c3cnc(N[C@@H](C)c4ccccc4)cc32)c1 | 149 | – | –
Cc1nn(-c2cc(Cl)cc(Cl)c2)c2cc(N[C@@H](C)c3ccccc3)ncc12 | 641 | – | –
Cc1nn(-c2cc(Cl)cc(CCC(N)=O)c2)c2cc(N[C@@H](C)c3ccccc3)ncc12 | 32 | 9350 | –
Cc1nn(-c2cc(Cl)cc(CCCN)c2)c2cc(N[C@@H](C)c3ccccc3)ncc12 | 59 | 5800 | –
Cc1nn(-c2cc(Cl)cc(Br)c2)c2cc(N[C@@H](C)c3ccccc3)ncc12 | 274 | – | –
Cc1nn(-c2cc(Cl)cc(CCC(=O)NCCO)c2)c2cc(N[C@@H](C)c3ccccc3)ncc12 | 48 | 9200 | –
Cc1nn(-c2cc(Cl)cc(CCC(=O)O)c2)c2cc(N[C@@H](C)c3ccccc3)ncc12 | 21 | > 20000 | –
CC(=O)Nc1ccccc1-c1cc(Cl)cc(-n2nc(C)c3cnc(N[C@@H](C)c4ccccc4)cc32)c1 | 207 | > 20000 | –
Cc1nn(-c2cccc(S(C)(=O)=O)c2)c2cc(N[C@@H](C)c3ccccc3)ncc12 | 225 | – | –

The next lines start with results.

IC50 [1] [nM] | EC50 [4] [nM] | SMILES | further results
4520 | – | Cc1nn(-c2ccccc2F)c2cc(N[C@@H](C)c3ccccc3)ncc12 | –
7690 | – | Cc1ccccc1-n1nc(C)c2cnc(N[C@@H](C)c3ccccc3)cc21 | –
4530 | – | Cc1ccc(-n2nc(C)c3cnc(N[C@@H](C)c4ccccc4)cc32)cc1 | –
5930 | – | COc1cccc(-n2nc(C)c3cnc(N[C@@H](C)c4ccccc4)cc32)c1 | –
1480 | – | Cc1nn(-c2cccc(C(C)C)c2)c2cc(N[C@@H](C)c3ccccc3)ncc12 | –
42 | 3640 | Cc1nn(-c2ccccc2C(N)=O)c2cc(N[C@@H](C)c3ccccc3)ncc12 | –
3240 | – | Cc1nn(-c2ccc(F)cc2)c2cc(N[C@@H](C)c3ccccc3)ncc12 | –
464 | – | Cc1nn(-c2cccc(F)c2)c2cc(N[C@@H](C)c3ccccc3)ncc12 | –
474 | – | Cc1cccc(-n2nc(C)c3cnc(N[C@@H](C)c4ccccc4)cc32)c1 | –
50 | 2430 | C[C@H](Nc1cc2c(cn1)cnn2-c1ccccc1C(N)=O)c1ccccc1 | EC50 [2]: 1700 nM; Selectivity ratio [5]: 50; Selectivity ratio [6]: 50; Selectivity ratio [7]: 150; EC50 [3]: 1900 nM; Activity [8]: Active
703 | – | COc1ccc(-n2nc(C)c3cnc(N[C@@H](C)c4ccccc4)cc32)cc1 | –
– | > 20000 | Cc1nn(-c2cccc(Cl)c2)c2cc(N[C@@H](C)c3ccccc3)ncc12 | –
14500 | – | COc1ccccc1-n1nc(C)c2cnc(N[C@@H](C)c3ccccc3)cc21 | –
